From patent US7772271B2 (priority 2004, dated 2010)

| Compound | melting point [°C] |
| --- | --- |
| CCn1c(-c2ccc(N3CCCS3(=O)=O)cc2)c(C#N)c2ccc(OCCOC)cc21 [Compound 1332] | 213 to 215 |
| CCn1c(-c2ccc(N3CCCS3(=O)=O)cc2)c(C#N)c2ccc(OCCOCCOC)cc21 [Compound 1333] | 160 to 164 |
| N#Cc1c(-c2ccc(NS(=O)(=O)C3CC3)cc2)n(CC2CCCO2)c2cc(OC(F)F)ccc12 (stereo not drawn) [Compound 1335] | 179 to 180 |
| CC(C)S(=O)(=O)Nc1ccc(-c2c(C#N)c3ccc(OC(F)F)cc3n2CC2CCCO2)cc1 (stereo not drawn) [Compound 1336] | 173 to 176 |
| CCOc1ccc(-c2c(C#N)c3ccc(N4CCN(C)CC4)cc3n2CC)cc1 [Compound 1338] | 186 to 187 |
| CC(C)n1c(-c2ccc(N(S(C)(=O)=O)S(C)(=O)=O)cc2)c(C#N)c2ccc(OC(F)F)cc21 [Compound 1342] | 232 to 234 |
| CCn1c(-c2ccc(NS(=O)(=O)CC)cc2)c(C#N)c2ccc(C(=O)O)cc21 [Compound 1344] | 294 to 296 |
| CCN(CC)C(=O)Oc1ccc(-c2c(C#N)c3ccc(OC)cc3n2CC)cc1 [Compound 1348] | 134.2 to 139.5 |
| C=COC(=O)Nc1cccc(-c2c(C#N)c3ccc(OCC)cc3n2C2CCC2)c1 [Compound 1355] | 163 to 164 |
| CCn1c(-c2ccc(N3CCCS3(=O)=O)cc2)c(C#N)c2ccc(N3CCN(S(=O)(=O)C4CC4)CC3)cc21 [Compound 1357] | 278 to 280 |
| CCn1c(-c2ccc(N3CCCS3(=O)=O)cc2)c(C#N)c2ccc(N3CCN(C(=O)c4ccccc4)CC3)cc21 [Compound 1358] | 260 to 261 |
| CCn1c(-c2ccc(NS(=O)(=O)CC)cc2)c(C#N)c2ccc(C(=O)N3CCOCC3)cc21 [Compound 1361] | 238 to 241 |
| CCn1c(-c2ccc(NS(=O)(=O)CC)cc2)c(C#N)c2ccc(C(=O)N3CCN(c4ccccc4)CC3)cc21 [Compound 1362] | 236 to 238 |
| CCn1c(-c2ccc(NS(=O)(=O)CC)cc2)c(C#N)c2ccc(C(=O)N3CCCC3)cc21 [Compound 1363] | 168 to 171 |
| CCn1c(-c2ccc(N)cc2)c(C#N)c2ccc(OCCOC)cc21 [Compound 1366] | 168 to 169 |
| CCn1c(-c2ccc(NC(=O)OC)cc2)c(C#N)c2ccc(OCCOC)cc21 [Compound 1367] | 191 to 194 |
| CCOC(=O)Nc1ccc(-c2c(C#N)c3ccc(OCCOC)cc3n2CC)cc1 [Compound 1368] | 175 to 177 |
| CCCOC(=O)Nc1ccc(-c2c(C#N)c3ccc(OCCOC)cc3n2CC)cc1 [Compound 1369] | 154 to 156 |
| CCn1c(-c2ccc(NC(=O)OCC(C)C)cc2)c(C#N)c2ccc(OCCOC)cc21 [Compound 1370] | 145 to 148 |
| CCn1c(-c2ccc(NC(=O)OCCF)cc2)c(C#N)c2ccc(OCCOC)cc21 [Compound 1371] | 166 to 168 |
| CCn1c(-c2ccc(NC(=O)OCc3ccccc3)cc2)c(C#N)c2ccc(OCCOC)cc21 [Compound 1372] | 107 to 109 |
| CCn1c(-c2ccc(NC(=O)OCCCl)cc2)c(C#N)c2ccc(OCCOC)cc21 [Compound 1373] | 148 to 151 |
| CCn1c(-c2cccc(NC(=O)N3CCN(C)CC3)c2)c(C#N)c2ccc(OC)cc21 [Compound 1375] | 108 to 120 |
| CCN(CC)C(=O)Nc1ccc(-c2c(C#N)c3ccc(OC)cc3n2CC)cc1 [Compound 1376] | 165 to 167 |
| CCN(CC)C(=O)Nc1ccc(-c2c(C#N)c3ccc(OCCOC)cc3n2CC)cc1 [Compound 1378] | 147 to 150 |
| CCn1c(-c2ccc(NC(=O)N3CCC(C)CC3)cc2)c(C#N)c2ccc(OCCOC)cc21 [Compound 1379] | 152 to 155 |
| CCn1c(-c2ccc(NC(=O)N3CCCCC3)cc2)c(C#N)c2ccc(OCCOC)cc21 [Compound 1380] | 216 to 218 |
| CCn1c(-c2ccc(NC(=O)N3CCCC3)cc2)c(C#N)c2ccc(OCCOC)cc21 [Compound 1381] | 151 to 154 |

Next, values leading:

| melting point [°C] | Compound |
| --- | --- |
| 110 to 114 | CCn1c(-c2ccc(NC(=O)N(CCOC)CCOC)cc2)c(C#N)c2ccc(OCCOC)cc21 [Compound 1382] |
| 175 to 176 | CCn1c(-c2ccc(NC(=O)N(C)Cc3ccccc3)cc2)c(C#N)c2ccc(OCCOC)cc21 [Compound 1384] |
| 122 to 127 | CCn1c(-c2ccc(OC(=O)N(C)CCOC)cc2)c(C#N)c2ccc(OC)cc21 [Compound 1385] |
| 213 to 214 | CCCn1c(-c2ccc(NC(=O)N(CC)CC)cc2)c(C#N)c2ccc(OC)cc21 [Compound 1386] |
| 65 to 70 | CCCNC(=O)Nc1ccc(-c2c(C#N)c3ccc(O[Si](C)(C)C(C)(C)C)cc3n2CC)cc1 [Compound 1387] |
| 161 to 164 | CCCn1c(-c2ccc(NC(=O)NCc3ccco3)cc2)c(C#N)c2ccc(OC)cc21 [Compound 1388] |
| 171 to 173 | CCn1c(-c2ccc(NC(=O)OC(C)(C)C)cc2)c(C#N)c2ccc(N3CCN(CC4CC4)CC3)cc21 [Compound 1389] |
| 217 to 223 | CCOc1ccc2c(C#N)c(-c3ccc(NC(=O)NCCN4CCOCC4)cc3)n(C3CCC3)c2c1 [Compound 1390] |
| 195 to 200 | CCOc1ccc2c(C#N)c(-c3ccc(NC(=O)NCC(C)O)cc3)n(C3CCC3)c2c1 (stereo not drawn) [Compound 1391] |
| 193 to 197 | CCOc1ccc2c(C#N)c(-c3ccc(NC(=O)NCCc4ccccn4)cc3)n(C3CCC3)c2c1 [Compound 1392] |
| 96.5 to 100.6 | CCn1c(-c2ccc(NC(=O)C3CC3)cc2)c(C#N)c2ccc(OCCNCCN3CCOCC3)cc21 [Compound 1394] |
| 95.9 to 99 | CCn1c(-c2ccc(NC(=O)C3CC3)cc2)c(C#N)c2ccc(OCCN3CCCN(C)CC3)cc21 [Compound 1395] |
| 192 to 198 | CCOc1ccc2c(C#N)c(-c3ccc(NC(=O)NCc4ccco4)cc3)n(C3CCC3)c2c1 [Compound 1396] |
| 125 to 126 | COCCOc1ccc2c(C#N)c(-c3ccc(NC(=O)OC(C)C)cc3)n(C3CCC3)c2c1 [Compound 1399] |
| 168 to 169 | COCCOc1ccc2c(C#N)c(-c3ccc(NC(=O)OC4CCCC4)cc3)n(C3CCC3)c2c1 [Compound 1400] |
| 182 to 183 | COCCOc1ccc2c(C#N)c(-c3ccc(NC(=O)Oc4ccc(Cl)cc4)cc3)n(C3CCC3)c2c1 [Compound 1401] |
| 144 to 145 | COCCOc1ccc2c(C#N)c(-c3ccc(NC(=O)OCc4ccccc4)cc3)n(C3CCC3)c2c1 [Compound 1402] |
| 168 to 171 | CCn1c(-c2ccc(NC(=O)NCCc3ccccc3)cc2)c(C#N)c2ccc(OCCOC)cc21 [Compound 1403] |
| 182 to 185 | CCn1c(-c2ccc(NC(=O)NC(C)C)cc2)c(C#N)c2ccc(OCCOC)cc21 [Compound 1405] |
| 141 to 144 | CCn1c(-c2ccc(NC(=O)OC(C)C)cc2)c(C#N)c2ccc(OCCOC)cc21 [Compound 1406] |
| 137 to 140 | CCn1c(-c2ccc(NC(=O)OC3CCCC3)cc2)c(C#N)c2ccc(OCCOC)cc21 [Compound 1407] |

| melting point [°C] | Compound |
| --- | --- |
| 152 to 155 | CCOc1ccc2c(C#N)c(-c3ccc(NC(=O)NCCCOC)cc3)n(C3CCC3)c2c1 [Compound 1409] |
| 173 to 174 | CCCS(=O)(=O)Nc1ccc(-c2c(C#N)c3ccc(N4CCN(CC5CC5)CC4)cc3n2CC)cc1 [Compound 1411] |
| 90.2 to 95.4 | CCn1c(-c2ccc(NC(=O)C3CC3)cc2)c(C#N)c2ccc(OCCN(C)CCN(C)C)cc21 [Compound 1413] |
| 163.9 to 168.8 | CCn1c(-c2ccc(NC(=O)C3CC3)cc2)c(C#N)c2ccc(OCCN3CCN(CCOC)CC3)cc21 [Compound 1414] |
| 220 to 222 | CCCNC(=O)Nc1ccc(-c2c(C#N)c3ccc(OCc4csc(C)n4)cc3n2CC)cc1 [Compound 1415] |
| 192 to 193 | COCCOc1ccc2c(C#N)c(-c3ccc(NS(=O)(=O)C4CC4)cc3)n(C3CCC3)c2c1 [Compound 1417] |
| 183 to 185 | CC(C)OC(=O)Nc1ccc(-c2c(C#N)c3ccc(OCC(O)CN4CCOCC4)cc3n2C2CCC2)cc1 (stereo not drawn) [Compound 1418] |
| 138 to 140 | CC(C)NC(=O)Nc1ccc(-c2c(C#N)c3ccc(OCC(O)Cn4ccnc4)cc3n2C2CCC2)cc1 (stereo not drawn) [Compound 1421] |
| 159 to 164 | CCOc1ccc2c(C#N)c(-c3ccc(NC(=O)OCc4cnccn4)cc3)n(C3CCC3)c2c1 [Compound 1426] |
| 122 to 125 | CC(C)OC(=O)Nc1ccc(-c2c(C#N)c3ccc(OCCCNC4CC4)cc3n2C2CCC2)cc1 [Compound 1430] |
| 187 to 194 | CCOc1ccc2c(C#N)c(-c3ccc(NC(=O)OCc4cccnc4)cc3)n(C3CCC3)c2c1 [Compound 1432] |
| 221 to 223 | CC(C)OC(=O)Nc1ccc(-c2c(C#N)c3ccc(OCCNC4CCC4)cc3n2C2CCC2)cc1 [Compound 1434] |
| 161 to 165 | CC(C)OC(=O)Nc1ccc(-c2c(C#N)c3ccc(OCCN4CCC(O)C4)cc3n2C2CCC2)cc1 (stereo not drawn) [Compound 1435] |
| 74 to 76 | COCCOc1ccc2c(C#N)c(-c3ccc(NC(=O)OC(c4ccccc4)C4CC4)cc3)n(C3CC3)c2c1 (stereo not drawn) [Compound 1437] |
| 76 to 79 | COCCOc1ccc2c(C#N)c(-c3ccc(NC(=O)OC(C)c4ccccc4)cc3)n(C3CC3)c2c1 (stereo not drawn) [Compound 1438] |
| 74 to 76 | COCCOc1ccc2c(C#N)c(-c3ccc(NC(=O)OC(C)c4ccc(F)cc4)cc3)n(C3CC3)c2c1 (stereo not drawn) [Compound 1439] |
| 192 to 196 | CCOc1ccc2c(C#N)c(-c3ccc(NC(=O)NC(C)COC)cc3)n(C3CCC3)c2c1 (stereo not drawn) [Compound 1441] |
| 144 to 145 | CC(C)OC(=O)Nc1ccc(-c2c(C#N)c3ccc(OC4CCN(Cc5ccccc5)C4)cc3n2C2CCC2)cc1 (stereo not drawn) [Compound 1442] |
| 199 to 201 | N#Cc1c(-c2ccc(N)cc2)n(C2CC2)c2cc(OC3CCOC3)ccc12 (stereo not drawn) [Compound 1443] |
| 112 to 115 | CC(OC(=O)Nc1ccc(-c2c(C#N)c3ccc(OC4CCOC4)cc3n2C2CC2)cc1)c1ccccc1 (stereo not drawn) [Compound 1445] |
